This note sets out measurements from patent US20080119530A1, “Method for treatment and prevention of ultraviolet light induced skin pathologies” (priority 2006, published 2008).

One experiment concerns Tg.AC mice. The experiment in a line: UV-induced epidermal hyperplasia in mouse skin. In kind it is in vivo. An excerpt: Animals. Homozygous v-rasHa transgenic mice on an FVB/N background were used in in vivo experiments. To obtain keratinocytes with genetic ablation of Erbb2, loxP sites were inserted flanking exon 2 of Erbb2 such that splicing from exon1 to downstream introns upon Cre recombinase expression creates a frameshift mutation. Mice were maintained in our animal facility and provided with Purina lab chow (Nestle Purina PetCare, St. Louis, Mo.) and water ad libitum. The dorsal skin was clipped one day before treatment using electric clippers (Wahl, Sterling, II) and shaved on the day of treatment with a Remington Microscreen shaver (Madison, N.C.). […] The Ultraviolet-B TL 40W/12 RS bulbs (Philips, Somerset, N.J.) used emitted approximately 30% UVA, 70% UVB and <1% UVC, with a total output of 470 μW/cm^2, as measured with radiometric photodetector probes (Newport, Irvine, Calif.). For tumor experiments, homozygous Tg.AC mice were treated and exposed twice with an interval of 7 d. Tumor number was counted and tumor volume measured weekly using calipers. Skin-fold thickness was measured using calipers (Mitutoyo, Aurora, Ill.) to lightly pinch the dorsal skin. […]
The influence of Erbb2 on epidermal hyperplasia was measured during the first two weeks of the tumor experiment regimen. […]

The subject of the next experiment is Cdc25a. The experiment in a line: Cdc25a immunoblotting in keratinocytes. In kind it is cell-based, mouse. The settings on record: vs appropriate controls. The procedure:
Immunoblotting. Flash frozen skin was ground with a mortar and pestle on dry ice, homogenized in lysis buffer containing 10 mM Tris (pH 7.4), 150 mM NaCl, 10% glycerol, 1% Triton X-100, 1 mM EDTA, Complete Protease Inhibitor Cocktail (Roche, Germany), 1 mM Na3V O4, 1.5 μM EGTA, and 10 μM NaF. Protein was quantified using the Coomassie Brilliant Blue G-250 protein assay (Bio-Rad, Hercules, Calif.). The evenness of loading and transfer was determined by staining with Ponceau S and by actin immunoblotting. […]
Cell culture. […] Transfection efficiency was quantified by determining the proportion of the cells that incorporated the fluorescent Cy3-conjugated siRNA or GFP one day post-transfection. […]
In order to understand how Erbb2 regulates S-phase progression following UV irradiation, signaling pathways known to regulate progression into and through S-phase were examined. […] The effect of abrogation of Erbb2 on Cdc25a occurred post-transcriptionally, since no decrease in Cdc25a mRNA was detected in our microarray analysis using the Erbb2 inhibitor (32). […]
(In general: In western blotting, separated proteins are transferred to a membrane and probed.)

The subject of experiment [1] is proliferating cell nuclear antigen (PCNA). The experiment in a line: PCNA expression in skin. The settings on record: sham-irradiated skin and UV-exposed skin. In kind it is in vivo, mouse. The procedure: It has been discovered that Erbb2 modulates the expression of genes important in both proliferation and apoptosis following UV exposure in vivo (Example 9). Accordingly, the influence of Erbb2 on both apoptosis and cell proliferation was assessed in order to determine the mechanisms of Erbb2's effect on hyperplasia in the skin after UV irradiation. Erbb2 suppresses UV-induced apoptosis in vitro, although the effect was slight (32). The percentage of TUNEL-positive basal cells was increased at 24 h after UV in vehicle-treated skin, consistent with previous observations in this animal model (13). […] Erbb2 reportedly suppresses keratinocyte differentiation (11), a process leading to keratinocyte death that is mechanistically and morphologically distinct from apoptosis. […] Mean proliferating cell nuclear antigen (PCNA) expression, a marker of cell proliferation, was less in Erbb2 inhibitor treated sham-irradiated skin and in UV-exposed skin when compared to the vehicle-treated controls.

Regarding `COc1cc(/C=C(\C#N)C(N)=O)cc(CSc2nc3ccccc3s2)c1O` [AG825], in the experiment on Tg.AC mice (first week after UV irradiation), the “effect on epidermal hyperplasia” value is “minimal”. For the same molecule, the epidermal hyperplasia entry in the experiment with Tg.AC mice (following the second UV irradiation) is reported as “significantly suppressed”. The Cdc25a immunoreactivity result with Cdc25a was “decreased”. For the same molecule, in experiment [1], the “mean PCNA expression vs vehicle-treated controls” value is recorded as “less”.
